The subject of this assay is BJ-TERT-LT-ST fibroblast viability, ATP luminescence. Put plainly: cytotoxicity toward BJ-TERT-LT-ST fibroblasts, dose response, cell-based, RAS-independent, luminescence (AID 1935).

Records with an inconclusive call do not appear. Activity calls are given as the source filed them. The rule behind the calls is not given here.

For orientation: EC50 means the concentration giving half of the maximal effect. Take `CCc1ccc(/C=C2\SC(=S)N(CCC(=O)NCCCN3CCOCC3)C2=O)cc1`: the EC50 is > 15 µM (inactive).

As for `CCc1ccc(/C=C2/SC(=S)N(CCC(=O)NCCCN3CCOCC3)C2=O)cc1`, the EC50 is > 15 µM (inactive).

The values above are taken from PubChem BioAssay AID1935 (Broad Institute, 2009).
